The GI50 is the concentration that inhibits growth by half. In general, TGI refers to the concentration giving total growth inhibition. Read a low TGI as greater sensitivity of the cells.

Some test systems named below: BT-549 breast; HCC-2998 colon; MCF7 breast; NCI-H522 lung; OVCAR-4 ovarian; OVCAR-5 ovarian; RXF 393 renal; SK-OV-3 ovarian; SNB-75 CNS; TK-10 renal.
Experiment in all cases: DTP human tumour cell line panel, 48 h

“And” between values parts separate entries of the source, which are not always exact repeats. Identical values can stand only once.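 A five-concentration, 48-hour dose response in 96-well plates underlies each endpoint, interpolated linearly between surrounding concentrations. GI50 is the concentration that inhibits growth by half. Definition used: TGI = concentration required for complete inhibition of growth.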 Where only a bound is given, the exact number is not on record here.

Take `Nc1c(C(=O)Nc2cccc(C(F)(F)F)c2)sc2nc3c(cc12)CCCCCC3`: the GI50 in the assay on BT-549 breast is 2.54 µM; in the assay on HCC-2998 colon it was 12.3 µM; in the assay on MCF7 breast, 2.44 µM; in the assay on NCI-H522 lung it was 4.09 µM; in the assay on OVCAR-4 ovarian, 1.61 µM; in the assay on OVCAR-5 ovarian, 3.29 µM. In addition, the GI50 in the assay with RXF 393 renal is 1.63 µM; with SK-OV-3 ovarian, 2.26 µM; in the assay with SNB-75 CNS it was 1.73 µM; with TK-10 renal, 2.18 µM. For the same molecule, the TGI in the assay on BT-549 breast was 9.59 µM; in the assay with HCC-2998 colon, over 100 µM; in the assay on MCF7 breast, 11.2 µM; in the assay on NCI-H522 lung it was 26.9 µM; with OVCAR-4 ovarian, 4 µM; with OVCAR-5 ovarian it was 13.7 µM. The TGI was 3.21 µM in the assay on RXF 393 renal, 6.29 µM with SK-OV-3 ovarian, 3.47 µM in the assay on SNB-75 CNS and 5.82 µM in the assay with TK-10 renal.
Turning to `O=C1OCC2=C1C(c1cccc(Cl)c1)c1cc3c(cc1N2CCO)CCC3` (stereo unspecified), the concentration for 50% growth inhibition (GI50) is 0.166 µM in the assay on BT-549 breast; 0.0922 µM in the assay on HCC-2998 colon; 0.0363 µM in the assay with MCF7 breast; 0.0203 µM in the assay on NCI-H522 lung; 0.0609 µM in the assay with OVCAR-4 ovarian; 0.143 µM with OVCAR-5 ovarian. Moreover, the concentration for 50% growth inhibition (GI50) with RXF 393 renal was 0.0238 µM; in the assay on SK-OV-3 ovarian it was 0.0414 µM; in the assay with SNB-75 CNS, 0.027 µM; in the assay with TK-10 renal, 0.0464 µM. Moreover, the TGI was 8.69 µM in the assay on BT-549 breast; 2.93 µM in the assay on HCC-2998 colon; 12.9 µM in the assay with MCF7 breast; 0.0603 µM in the assay on NCI-H522 lung; 19.5 µM in the assay on OVCAR-4 ovarian; 18.2 µM in the assay on OVCAR-5 ovarian. Moreover, the figures for the TGI in the assay on SK-OV-3 ovarian, in the assay on SNB-75 CNS and in the assay on TK-10 renal were 7.8 µM, 17.7 µM and 16.3 µM, respectively.
As to `COc1ncc(-c2ccc3nccc(C#CCCCCC(=O)NO)c3c2)cc1NS(=O)(=O)c1ccc(F)cc1F`, the concentration for 50% growth inhibition (GI50) in the assay on BT-549 breast was 0.0535 µM; in the assay on HCC-2998 colon, 0.0758 µM; in the assay with MCF7 breast it was 0.0186 µM; in the assay with NCI-H522 lung it was 0.0929 µM; in the assay with OVCAR-4 ovarian, 1.72 µM; with OVCAR-5 ovarian it was 0.0634 µM. In addition, the 50% growth inhibitory concentration (GI50) in the assay on RXF 393 renal was 0.0466 µM; in the assay on SK-OV-3 ovarian, 0.035 µM; in the assay with SNB-75 CNS, 0.0543 µM; with TK-10 renal, 0.0294 µM. Also, the TGI in the assay on BT-549 breast amounted to 2.77 µM; in the assay on HCC-2998 colon it was 4.26 µM; with MCF7 breast, 4.45 µM; with NCI-H522 lung, 2.31 µM; with OVCAR-4 ovarian, 14.1 µM; in the assay with OVCAR-5 ovarian, 8.2 µM. The concentration for total growth inhibition (TGI) in the assay on RXF 393 renal turned out to be 0.75 µM; in the assay with SK-OV-3 ovarian it was 0.18 µM; with SNB-75 CNS, 0.827 µM; in the assay on TK-10 renal, 1.37 µM.
Turning to `Cc1c(Cl)c(C)c(Cl)c(O)c1Cl`, the total growth inhibition concentration (TGI) in the assay on BT-549 breast was 81.7 µM; with HCC-2998 colon, 50.6 µM; with MCF7 breast, over 100 µM; in the assay with NCI-H522 lung it was 50.7 µM; in the assay with OVCAR-4 ovarian it was over 100 µM; in the assay on OVCAR-5 ovarian, over 100 µM. Moreover, the TGI is over 100 µM with RXF 393 renal, over 100 µM with SK-OV-3 ovarian, over 100 µM with SNB-75 CNS and 82.3 µM in the assay on TK-10 renal.
For the molecule `COC(=O)Nc1nc2ccc(C(=O)c3ccc(F)cc3)cc2[nH]1`, the GI50 was 2.44 µM in the assay on BT-549 breast; 0.173 µM in the assay with HCC-2998 colon; 0.0867 µM with MCF7 breast; 0.311 µM with NCI-H522 lung; 1.21 µM in the assay on OVCAR-4 ovarian; 2.45 µM in the assay with OVCAR-5 ovarian. Further, the GI50 is 0.763 µM with RXF 393 renal, 0.51 µM with SK-OV-3 ovarian, 0.205 µM in the assay with SNB-75 CNS and 1.72 µM with TK-10 renal. For the same molecule, the concentration for total growth inhibition (TGI) was over 100 µM in the assay on BT-549 breast; over 100 µM in the assay with MCF7 breast; over 100 µM with OVCAR-4 ovarian; over 100 µM with OVCAR-5 ovarian; over 100 µM in the assay on RXF 393 renal; 11.2 µM in the assay on SK-OV-3 ovarian. The values for the TGI in the assay with SNB-75 CNS and in the assay on TK-10 renal were 12.4 µM and 58.3 µM, respectively.
As to `CN1CCN(CCC=C2c3ccccc3Sc3ccc(S(=O)(=O)N(C)C)cc32)CC1`, the GI50 with BT-549 breast was 8.06 µM and 13 µM; with HCC-2998 colon it was 1.55 µM and 2.57 µM; in the assay on MCF7 breast, 1.91 µM and 2.81 µM; in the assay with NCI-H522 lung, 1.87 µM and 8.15 µM; with OVCAR-4 ovarian, 9.5 µM and 12.8 µM; in the assay on OVCAR-5 ovarian it was 10.9 µM and 14.8 µM. The GI50 with RXF 393 renal was 1.68 µM; in the assay on SK-OV-3 ovarian, 9.22 µM and 13.6 µM; in the assay with TK-10 renal, 2.22 µM and 7.92 µM. Further, the total growth inhibition concentration (TGI) with BT-549 breast was 23 µM and 29.2 µM; with HCC-2998 colon it was 3.21 µM and 6.84 µM; in the assay on MCF7 breast, 4 µM and 14 µM; in the assay on NCI-H522 lung it was 3.83 µM and 28.1 µM; in the assay on OVCAR-4 ovarian, > 100 µM and 58.9 µM; in the assay with OVCAR-5 ovarian, 38.8 µM and 30 µM. Also, the TGI with RXF 393 renal was 5.52 µM; in the assay with SK-OV-3 ovarian it was 24.7 µM and 30.7 µM; in the assay with TK-10 renal, 5.05 µM and 23.8 µM.
Turning to `CO/C(=C1/NC(=O)C(Cc2ccc(O)c(Br)c2)N(C)C(=O)C(C)NC(=O)CCC/C=C(\C)CCC(C)OC1=O)c1ccccc1` (stereo unspecified), the 50% growth inhibitory concentration (GI50) in the assay with BT-549 breast is 0.0368 µM; in the assay with HCC-2998 colon, under 0.0154 µM; in the assay with MCF7 breast, under 0.0165 µM; in the assay with NCI-H522 lung, 0.0281 µM; in the assay with OVCAR-4 ovarian it was 0.0225 µM; in the assay with OVCAR-5 ovarian it was 0.0445 µM. Further, the values for the GI50 with RXF 393 renal and in the assay with SK-OV-3 ovarian were 0.0347 µM and 0.0245 µM, respectively. Besides, the total growth inhibition concentration (TGI) in the assay on BT-549 breast was 0.105 µM; in the assay with HCC-2998 colon, 0.311 µM; in the assay on MCF7 breast, 1.9 µM; in the assay on NCI-H522 lung, 0.438 µM; with OVCAR-5 ovarian it was over 35 µM; in the assay on RXF 393 renal, 16.2 µM. The molecule further came in with a TGI with SK-OV-3 ovarian of 0.0662 µM.
Regarding `O=C(O)c1ccc(/C=N/N=C2c3ccccc3-c3ccccc32)cc1`, the concentration for total growth inhibition (TGI) in the assay on BT-549 breast, in the assay on MCF7 breast, in the assay on NCI-H522 lung, with OVCAR-4 ovarian, in the assay with OVCAR-5 ovarian and in the assay with RXF 393 renal was over 100 µM each time. The concentration for total growth inhibition (TGI) in the assay on SK-OV-3 ovarian and with TK-10 renal was over 100 µM throughout.
Regarding `CC/C(=C(/c1ccc(OCCN(C)C)cc1)c1ccc(OC(=O)CCCCCCCCC(=O)c2c(C)[nH]c(/C=C3\N=C(c4ccc[nH]4)C=C3OC)c2C)cc1)c1ccccc1`, the GI50 was 5.21 µM in the assay on BT-549 breast; over 100 µM in the assay on HCC-2998 colon; 0.161 µM in the assay with MCF7 breast; 21.2 µM in the assay with NCI-H522 lung; over 100 µM with OVCAR-5 ovarian; 13.9 µM in the assay on RXF 393 renal. Further, the GI50 is over 100 µM in the assay with SK-OV-3 ovarian, 6.25 µM in the assay on SNB-75 CNS and 21 µM in the assay with TK-10 renal. The concentration for total growth inhibition (TGI) is over 100 µM with BT-549 breast; over 100 µM in the assay on HCC-2998 colon; 10.9 µM in the assay on MCF7 breast; over 100 µM in the assay on NCI-H522 lung; over 100 µM with OVCAR-5 ovarian; over 100 µM in the assay on RXF 393 renal. Moreover, the total growth inhibition concentration (TGI) in the assay with SK-OV-3 ovarian, in the assay on SNB-75 CNS and with TK-10 renal was over 100 µM each time.

The values are drawn from PubChem BioAssay (NCI).
